Data: patent US20080200473A1, “Imidazo [1,2-a]Pyridine Compounds, Compositions, Uses and Methods Thereto” (Ferrer Internacional, S.A., priority 2004, published 2008)

What was measured:
mice = assay: In vivo predictive sedation-hypnosis test (inhibition of traveled distance); design: species or system mouse; settings: male CD1 mice; single equimolecular intraperitoneal doses; traveled distance over 30 min after dosing (first 5 min discarded) versus control
Description: In vivo determination of predictive sedative-hypnotic action.
The in vivo effects of these compounds were assessed by a predictive sedation-hypnosis test in mice (D. J. Sanger et al., Eur. J. Pharmacol., 313, 35-42, 1996; and G. Griebel et al., Psychopharmacology, 146, 205-213, 1999).
Groups of 5-8 male CD1 mice, weighing 22-26 g at the time of test, were used. The test compounds were administered in single equimolecular intraperitoneal doses, suspended in 0.25% agar with one drop of Tween in a volume of 10 mL/kg. Control animals received the vehicle alone. Using a Smart System (Panlab, S. L., Spain) the traveled distance in cm is recorded for each mouse at 5-min intervals during a period of 30 minutes after dosing. The inhibition percentage of traveled distance of treated animals versus control animals (the first 5 min were discarded) was calculated.

α2-GABAA receptor = assay: Ligand-binding assay, competitive with radiolabeled flumazenil, spinal cord membranes; settings: Affinity for α2-GABAA receptor, rat spinal cord membranes, radiolabeled flumazenil 1 nM; for % Inhibition 10^−5M: 10^-5M test compound; for % Inhibition 10^−7M: 10^-7M test compound
Description: (§1) Ligand-binding assays. Determination of the affinity of test compounds for α1- and α2-GABAA receptor.
(§2) Male Sprague-Dawley rats weighing 200-250 g at the time of experiment were used. After decapitation of the animal, the cerebellum (tissue that mostly contains α1-GABAA receptor) and spinal cord (tissue that mostly contains α2-GABAA receptor) were removed. The membranes were prepared according to the method by J. Lameh et al. (Prog. Neuro-Psychopharmacol. Biol. Psychiatry, 24, 979-991, 2000) and H. Noguchi et al. (Eur. J. Pharm., 434, 21-28, 2002). Once the tissues weighed, they were suspended in 50 mM Tris.HCl (pH 7.4), 1:40 (w/v), or sucrose 0.32 M in the case of spinal cord, homogenized and then centrifuged at 20,000 g for 10 min at 7° C. twice. The resulting pellet was resuspended under the same conditions and centrifuged again. The pellet was finally resuspended on a minimum volume and kept at −80° C. overnight. On the next day, the process was repeated until the final pellet was resuspended at a ratio of 1:10 (w/v) in the case of cerebellum and at a ratio of 1:5 (w/v) in the case of spinal cord.
(§3) Affinity was determined by competitive tests using radiolabeled flumazenil as ligand. The tests were performed according to the methods described by S. Arbilla et al. (Eur. J. Pharmacol., 130, 257-263, 1986); and Y. Wu et al. (Eur. J. Pharmacol., 278, 125-132, 1995) using 96-well microtiter plates. The membranes containing the study receptors, flumazenil (radiolabeling at a final concentration of 1 nM) and ascending concentrations of test compounds (in a total volume of 230 μL in 50 mM [ph 7.4] Tris.HCl buffer) were incubated. Simultaneously, the membranes were only incubated with the radiolabeled flumazenil (total binding, 100%) and in the presence of an elevated concentration of unradiolabeled flumazenil (non-specific binding, % estimation of radiolabeled ligand). The reactions started on adding the radiolabeled ligand followed by incubation for 60 minutes at 4° C. At the end of the incubation period, 200 μL of reaction were transferred to a multiscreen plate (Millipore) and filtered using a vacuum manifold and then washed three times with cold test buffer. The multiscreen plates were equipped with a GF/B filter that retained the membranes containing the receptors and the radiolabeled ligand which has been bound to the receptors. After washing, the plates were left till dry. Once dried, scintillation liquid was added and left under stirring overnight. The next day the plates were counted using a Perkin-Elmer Microbeta scintillation counter.
(§4) For analysis of the results the percentage of specific binding for every concentration of test compound was calculated as follows:
(§5) % specific binding=(X−N/T−N)×100
(§6) where, X: amount of bound ligand for every concentration of compound. T: total binding, maximum amount bound to the radiolabeled ligand. N: non-specific binding, amount of radiolabeled ligand bound in a non-specific way irrespective of the receptor used.
(§7) Every concentrations of compound were tested in triplicate and their mean values were used to determine the experimental values of % specific binding versus the concentration of compound. Affinity data are expressed as % inhibition at 10^-5M and 10^-7M concentrations.

α1-GABAA receptor = assay: Ligand-binding assay, competitive with radiolabeled flumazenil, cerebellum membranes; settings: Affinity for α1-GABAA receptor, rat cerebellum membranes, radiolabeled flumazenil 1 nM; for % Inhibition 10^−5M: 10^-5M test compound; for % Inhibition 10^−7M: 10^-7M test compound
Description: as §1, §2, §3, §4, §5, §6, §7

Row | Structure (SMILES) | % Inhibition Motor Activity (mice) [%] | % Inhibition 10^−5M (α2-GABAA receptor) [%] | % Inhibition 10^−7M (α2-GABAA receptor) [%] | % Inhibition 10^−5M (α1-GABAA receptor) [%] | % Inhibition 10^−7M (α1-GABAA receptor) [%]
1 | Cc1ccc(-c2nc3ccc(C)cn3c2CNC(=O)c2cccnc2)cc1 [Example 63, N-(6-Methyl-2-p-tolyl-imidazo[1,2-a]pyridin-3-ylmethyl)-nicotinamide] | 74.86 | 89.8 | 13.4 | 98.5 | 36.1
2 | Cc1ccc(-c2nc3ccc(C)cn3c2CNC(=O)C2=NNC(=O)CC2)cc1 [Example 65, 6-Oxo-1,4,5,6-tetrahydro-pyridazine-3-carboxylic acid (6-methyl-2-p-tolyl-imidazo[1,2-a]pyridin-3-ylmethyl)-amide] | 85.22 | 95.4 | 39.1 | 99.5 | 83.9
3 | Cc1ccc(-c2nc3ccc(C)cn3c2CNC(=O)c2cc(C)n(C)n2)cc1 [Example 67, 1,5-Dimethyl-1H-pyrazole-3-carboxylic acid (6-methyl-2-p-tolyl-imidazo[1,2-a]pyridin-3-ylmethyl)-amide] | 78.09 | 96.6 | 47.3 | 99.6 | 84.7
4 | Cc1ccc(-c2nc3ccc(C)cn3c2CNC(=O)c2csc(C)n2)cc1 [Example 69, 2-Methyl-thiazole-4-carboxylic acid (6-methyl-2-p-tolyl-imidazo[1,2-a]pyridin-3-ylmethyl)-amide] | 78.41 | 98.8 | 74.1 | 100.4 | 93.4
5 | Cc1ccc(-c2nc3ccc(C)cn3c2CNC(=O)c2csnn2)cc1 [Example 70, [1,2,3]Thiadiazole-4-carboxylic acid (6-methyl-2-p-tolyl-imidazo[1,2-a]pyridin-3-ylmethyl)-amide] | 90.77 | 97.7 | 25.6 | 100.4 | 79.7
6 | Cc1ccc(-c2nc3ccc(C)cn3c2CNC(=O)Cc2cccs2)cc1 [Example 71, N-(6-Methyl-2-p-tolyl-imidazo[1,2-a]pyridin-3-ylmethyl)-2-thiophen-2-yl-acetamide] | 94.08 | 67.8 | 7.2 | 96.4 | 21.9
7 | Cc1ccc(-c2nc3ccc(C)cn3c2CNC(=O)c2cc(C)on2)cc1 [Example 72, 5-Methyl-isoxazole-3-carboxylic acid (6-methyl-2-p-tolyl-imidazo[1,2-a]pyridin-3-ylmethyl)-amide] | 73.81 | 95 | 33.1 | 99.8 | 73.4
8 | Cc1ccc(-c2nc3ccc(C)cn3c2CNC(=O)c2cn(C)cn2)cc1 [Example 74, 1-Methyl-1H-imidazole-4-carboxylic acid (6-methyl-2-p-tolyl-imidazo[1,2-a]pyridin-3-ylmethyl)-amide] | 77.37 | 98.6 | 63.0 | 99.9 | 95.3
9 | Cc1ccc(-c2nc3ccc(C)cn3c2CNC(=O)c2nccn2C)cc1 [Example 78, 1-Methyl-1H-imidazole-2-carboxylic acid (6-methyl-2-p-tolyl-imidazo[1,2-a]pyridin-3-ylmethyl)-amide] | 88.10 | 98.8 | 85.9 | 100.2 | 97.9
10 | Cc1ccc(-c2nc3ccc(C)cn3c2CNC(=O)c2cscn2)cc1 [Example 81, Thiazole-4-carboxylic acid (6-methyl-2-p-tolyl-imidazo[1,2-a]pyridin-3-ylmethyl)-amide] | 84.31 | 94.3 | 1.5 | 99.6 | 69.9
11 | Cc1ccc(-c2nc3ccc(C)cn3c2CNC(=O)c2nc(C)oc2C)cc1 [Example 83, 2,5-Dimethyl-oxazole-4-carboxylic acid (6-methyl-2-p-tolyl-imidazo[1,2-a]pyridin-3-ylmethyl)-amide] | 93.22 | 93.2 | 71.1 | 100.0 | 93.6
12 | Cc1ccc(-c2nc3ccc(C)cn3c2CNC(=O)c2cnccn2)cc1 [Example 89, Pyrazine-2-carboxylic acid (6-methyl-2-p-tolyl-imidazo[1,2-a]pyridin-3-ylmethyl)-amide] | 74.65 | 98.2 | 54.5 | 100.3 | 88.2
13 | Cc1ccc(-c2nc3ccc(C)cn3c2CNC(=O)c2c(C)noc2C)cc1 [Example 90, 3,5-Dimethyl-isoxazole-4-carboxylic acid (6-methyl-2-p-tolyl-imidazo[1,2-a]pyridin-3-ylmethyl)-amide] | 82.12 | 31.8 | 0.0 | 84.5 | 0.0
14 | Cc1ccc(-c2nc3ccc(C)cn3c2CN(C)C(=O)c2cscn2)cc1 [Example 94, Thiazole-4-carboxylic acid methyl-(6-methyl-2-p-tolyl-imidazo[1,2-a]pyridin-3-ylmethyl)-amide] | 89.33 | 94.5 | 33.2 | 99.5 | 78.5
15 | Cc1ccc(-c2nc3ccc(C)cn3c2CC(=O)N(C)C)cc1 [Zolpidem, reference compound] | 90.80 | 78.2 | 20.1 | 94.4 | 73.6
